{"source": "patent US12384769B2", "about": "“Heteroaryl-substituted aminoalkyl azole compounds as pesticides” (Elanco Animal Health GmbH, priority 2019, dated 2025)", "assay_type_in_all_cases": "in vivo", "key": {"[1]": {"test_system": "Rhipicephalus microplus (strain Parkhurst, resistant against synthetic pyrethroids)", "experiment": "Rhipicephalus microplus in-vitro contact test, larval cattle tick (BOOPMI Contact)", "conditions": "5 μg/cm^2 (=500 g/ha), after 48 hours, read-out: activity (efficacy, larvae dead or moribund)", "summary_of_the_method": "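Glass tubes coated with compound in acetone (900 ppm giving 5 μg/cm²), dried, then loaded with 20-50 pyrethroid-resistant Parkhurst larvae and held at 27 °C, 85% RH. After 48 h negative geotaxis is scored; efficacy in % dead or moribund larvae.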"}, "[2]": {"test_system": "Myzus persicae", "experiment": "Myzus persicae oral test", "conditions": "120 h, after 5 days", "method": "Solvent: 100 parts by weight acetone\nAfterwards the plates are sealed with parafilm through which a mixed population of the green peach aphid (Myzus persicae) can suck on the compound preparation.\nAfter 5 days mortality in % is determined. 100% means all aphids have been killed and 0% means none of the aphids have been killed."}, "[3]": {"test_system": "Boophilus microplus", "experiment": "Boophilus microplus injection test (BOOPMI Injection)", "conditions": "Rhipicephalus microplus, 168 h, injection into adult engorged female ticks, egg deposition after 7 days, read-out: activity (efficacy, infertile eggs)", "summary_of_the_method": "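Adult engorged female ticks (5 per group) injected into the abdomen with 1 μL compound in DMSO, then held in a climate chamber. Fertile egg deposition scored after 7 days, with unclear eggs kept until hatching (~42 days). Efficacy 100% = all eggs infertile, 0% = all fertile.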"}, "[4]": {"test_system": "Musca domestica strain WHO-N", "experiment": "Musca domestica test (MUSCDO surface treatment & contact assay)", "conditions": "surface concentration 20 mg/m^2, glazed tile, 30 minutes exposure, 24 hours after contact, read-out: efficacy (mortality)", "method": "Musca domestica Test (MUSCDO Surface Treatment & Contact Assay)\n(§1) Solvent: Aceton+2000 ppm rapeseed oil methyl ester (RME)\n(§2) In order to produce a sufficient, active ingredient containing solution it is necessary to solve the test compound in the solvent-mix (acetone at 2 mg/mL/RME 2000 ppm). This solution is pipetted onto a glazed tile and after evaporation of the acetone, adult flies of the species Musca domestica strain WHO—N are placed onto the dried surface. The exposure time is 30 minutes.\n(§3) Mortality in percent (%) is determined 24 hours after contact of the insects to the treated surface. 100% mortality means that all tested insects are dead, whereas 0% means that no insect died."}, "[5]": {"test_system": "Rhipicephalus sanguineus", "experiment": "Rhipicephalus sanguineus in-vitro contact test, adult brown dog ticks (RHIPSA Contact)", "conditions": "5 μg/cm^2 (=500 g/ha), after 48 hours, read-out: activity (efficacy, ticks dead or moribund)", "summary_of_the_method": "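Acetone solution coated onto glass tube walls; 900 ppm gives 5 μg/cm^2. After drying, 5-10 adult ticks per tube kept at room temperature for 48 h, then placed on a 45-50° C heating plate up to 5 min; ticks unable to climb away counted dead or moribund, efficacy as % affected.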"}, "[6]": {"test_system": "Ctenocephalides felis", "experiment": "Ctenocephalides felis oral test (CTECFE)", "conditions": "48 h, 100 ppm in cattle blood, after 2 days", "summary_of_the_method": "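About 20 adult unfed fleas fed through parafilm on cattle blood held at 37° C and dosed with compound from a DMSO concentrate; flea chamber at room temperature. Percent mortality scored after 2 days.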"}, "[7]": {"test_system": "Culex quinquefasciatus strain P00", "experiment": "Culex quinquefasciatus test (CULXFA surface treatment & contact assay)", "conditions": "30 minutes exposure, 24 hours after contact, read-out: efficacy (mortality)", "method": "Culex quinquefasciatus Test (CULXFA Surface Treatment & Contact Assay)\nas §1\nas §2, with “2 000” for “2000”, “mosquitoes” for “flies”, “Culex quinquefasciatus” for “Musca domestica”, “P00” for “WHO—N”\nas §3"}, "[8]": {"test_system": "Ctenocephalides felis", "experiment": "Ctenocephalides felis in-vitro contact test, adult cat flea", "conditions": "5 μg/cm^2 (=500 g/ha), after 48 hours, read-out: activity (efficacy, fleas dead or moribund)", "summary_of_the_method": "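Acetone solutions coated onto inner walls of glass tubes; 900 ppm gives 5 μg/cm^2. After drying, 5-10 adult Ctenocephalides felis per tube held 48 h at room temperature. Fleas then placed on 45-50° C. plate for up to 5 min; those unable to climb away scored dead or moribund, efficacy as % dead/moribund.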"}}, "data": [{"smiles": "C[C@H](Nc1nc2cc(C(F)(F)F)c(Cl)cc2o1)c1ncnn1-c1ncccn1", "note": "[Example I-001, 6-chloro-N-{(1S)-1-[1-(pyrimidin-2-yl)-1H-1,2,4-triazol-5-yl]ethyl}-5-(trifluoromethyl)-1,3-benzoxazol-2-amine]", "values": [{"measurement": "pest or weed control at 5 µg/cm2", "setting": "[1]", "result": 100, "unit": "%"}, {"measurement": "mortality at 4 ppm", "setting": "[2]", "result": 100, "unit": "%"}, {"measurement": "pest or weed control at 0.004 mg", "setting": "[3]; 4 μg/animal", "result": 100, "unit": "%"}, {"measurement": "pest or weed control at 0.02 mg", "setting": "[3]; 20 μg/animal", "result": 100, "unit": "%"}, {"measurement": "mortality at 20 mg/m2", "setting": "[4]", "result": "90 to 100", "unit": "%"}, {"measurement": "pest or weed control at 5 µg/cm2, 5 µg/cm2", "setting": "[5]", "result": 100, "unit": "%"}, {"measurement": "mortality at 100 ppm", "setting": "[6]", "result": 100, "unit": "%"}, {"measurement": "mortality at 4 mg/m2", "setting": "[7]; surface concentration 4 mg/m^2, glazed tile", "result": "90 to 100", "unit": "%"}, {"measurement": "mortality at 20 mg/m2", "setting": "[7]; surface concentration 20 mg/m^2, glazed tile", "result": "90 to 100", "unit": "%"}, {"measurement": "pest or weed control at 5 µg/cm2, 5 µg/cm2", "setting": "[8]", "result": 100, "unit": "%"}]}]}
